Tests used:
Test in all cases: relative viability (nuclei count vs DMSO), 5 days (fraction); higher = more cells survive
[1] = compound: O=C(CCCCCCNC(=O)c1cnc(N(c2ccccc2)c2ccccc2)nc1)NO [Ricolinostat] + C[C@@H](Oc1cc(-c2cnn(C3CCNCC3)c2)cnc1N)c1c(Cl)ccc(F)c1Cl [Crizotinib] (partner 1 µM)
Outline: (§1)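 A single step with final 0.05% Triton X-100, 1% formaldehyde and 1 ug/ml Hoechst fixed the cells and stained nuclei 5 days after treatment. Lung cancer cell lines in 1536-well plates had been treated by pin tool the day after seeding with one drug alone or a fixed anchor-drug dose plus five library-drug doses (not always all listed) in √10 steps, and nuclei were counted on 4× images. Relative viability is the ratio of nuclei in treated wells to nuclei in vehicle wells, taken as the median of duplicate plates.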

[2] = compound: C1=CC=C(C(=C1)C2=CC=C(C=C2)C3=CSC4=C3C(=C(C(=O)N4)C#N)O)O + CS(=O)(=O)CCNCc1ccc(-c2ccc3ncnc(Nc4ccc(OCc5cccc(F)c5)c(Cl)c4)c3c2)o1 [Lapatinib] (partner 2 µM)
Outline: as §1

[3] = compound: O=C(CCCCCCNC(=O)c1cnc(N(c2ccccc2)c2ccccc2)nc1)NO [Ricolinostat] + CC(=O)c1c(C)c2cnc(Nc3ccc(N4CCNCC4)cn3)nc2n(C2CCCC2)c1=O [Palbociclib] (partner 0.5 µM)
Outline: as §1

[4] = compound: O=C(CCCCCCNC(=O)c1cnc(N(c2ccccc2)c2ccccc2)nc1)NO [Ricolinostat] + CC(=O)Nc1cccc(-n2c(=O)n(C3CC3)c(=O)c3c(Nc4ccc(I)cc4F)n(C)c(=O)c(C)c32)c1 [Trametinib] (partner 0.02 µM)
Outline: as §1

Cell Line	relative viability ([1]; first compound 0.08 µM)	relative viability ([1]; first compound 0.253 µM)	relative viability ([1]; first compound 0.8 µM)	relative viability ([1]; first compound 2.53 µM)	relative viability ([2]; first compound 0.08 µM)	relative viability ([2]; first compound 0.253 µM)	relative viability ([2]; first compound 0.8 µM)	relative viability ([2]; first compound 2.53 µM)	relative viability ([2]; first compound 8 µM)	relative viability ([3]; first compound 0.08 µM)	relative viability ([3]; first compound 0.253 µM)	relative viability ([3]; first compound 0.8 µM)	relative viability ([3]; first compound 2.53 µM)	relative viability ([4]; first compound 0.08 µM)	relative viability ([4]; first compound 0.253 µM)	relative viability ([4]; first compound 0.8 µM)	relative viability ([4]; first compound 2.53 µM)
201T	0.926	1.04	1.08	1.07	0.979	1.03	1.01	0.849	1.12	0.362	0.356	0.36	0.369	0.713	0.709	0.689	0.772
A549	0.757	0.714	0.581	0.291	1.01	0.912	1.06	0.971	0.918	–	–	–	–	–	–	–	–
A-427	0.747	0.869	0.82	0.63	0.917	1.06	1.2	1.03	1.2	0.503	0.531	0.474	0.457	0.652	0.776	0.723	0.654
ABC-1	1.01	1.16	0.836	0.705	1.52	1.49	1.42	1.13	0.997	0.585	0.631	0.8	0.612	–	–	–	–
BEN	0.745	0.789	0.903	0.68	0.577	0.663	0.716	0.87	0.645	0.461	0.474	0.499	0.451	0.816	0.905	0.828	0.796
CAL-12T	0.623	0.545	0.571	0.618	–	0.848	0.604	0.617	0.599	0.443	0.464	0.413	0.43	0.266	0.32	0.456	0.395
COR-L23	0.506	0.545	0.571	0.277	0.772	1.22	0.834	1.11	0.712	0.261	0.227	0.203	0.156	0.485	0.582	0.625	0.49
COR-L 105	0.669	0.854	0.643	0.646	0.4	0.353	0.34	0.344	0.345	0.401	0.396	0.387	0.476	0.376	0.471	0.547	0.543
Calu-6	0.712	0.766	0.638	0.51	1.03	1.03	1.21	1.27	1.03	–	–	–	–	–	–	–	–
ChaGo-K-1	1.13	1.08	1.05	0.997	–	–	–	–	–	0.93	0.947	0.901	0.837	0.894	0.865	0.848	0.802
EBC-1	0.186	0.163	0.164	0.224	0.265	0.226	0.223	0.209	0.173	–	–	–	–	–	–	–	–
EKVX	–	0.762	0.958	1.01	0.225	0.208	0.201	0.195	0.211	0.358	0.42	0.408	0.422	0.283	0.282	0.426	0.368
EMC-BAC-2	0.697	0.698	0.695	0.681	0.76	1	0.917	0.894	0.812	0.525	0.496	0.47	0.405	0.809	0.895	0.819	0.74
EPLC-272H	–	0.936	0.82	0.622	–	0.924	0.849	0.897	1.01	–	0.325	0.332	0.237	–	0.284	0.313	0.26
H3255	0.822	0.823	0.804	0.749	0.231	0.292	0.231	0.235	0.25	0.336	0.307	0.292	0.33	0.571	0.644	0.677	0.76
HARA	0.925	0.948	0.926	0.712	–	1.03	0.821	0.762	0.738	0.269	0.288	0.238	0.248	0.704	0.804	0.529	0.644
HCC-15	0.775	0.801	0.799	0.84	0.702	0.918	0.897	0.962	0.783	0.779	0.739	0.685	0.606	0.352	0.397	0.379	0.333
HCC-44	0.836	0.753	0.774	0.592	0.863	1.07	0.928	1.02	0.993	0.91	0.935	1.01	0.964	1.11	1.02	1.02	1.04
HCC-78	–	0.288	0.279	0.25	0.575	0.935	0.899	0.781	0.809	–	0.438	0.484	0.479	–	0.782	0.768	0.601
HCC-366	0.49	0.464	0.428	0.188	1.24	0.948	1.24	1.01	1.01	0.383	0.335	0.344	0.257	0.372	0.32	0.314	0.342

Cell Line	relative viability ([1]; first compound 0.08 µM)	relative viability ([1]; first compound 0.253 µM)	relative viability ([1]; first compound 0.8 µM)	relative viability ([1]; first compound 2.53 µM)	relative viability ([2]; first compound 0.08 µM)	relative viability ([2]; first compound 0.253 µM)	relative viability ([2]; first compound 0.8 µM)	relative viability ([2]; first compound 2.53 µM)	relative viability ([2]; first compound 8 µM)	relative viability ([3]; first compound 0.08 µM)	relative viability ([3]; first compound 0.253 µM)	relative viability ([3]; first compound 0.8 µM)	relative viability ([3]; first compound 2.53 µM)	relative viability ([4]; first compound 0.08 µM)	relative viability ([4]; first compound 0.253 µM)	relative viability ([4]; first compound 0.8 µM)	relative viability ([4]; first compound 2.53 µM)
HCC-827	0.827	0.956	0.841	0.846	0.185	0.201	0.197	0.184	0.18	0.335	0.548	0.487	0.573	0.49	0.527	0.581	0.584
HOP-62	0.912	0.855	0.924	0.87	0.766	0.888	1.1	1.19	0.871	0.457	0.406	0.355	0.416	0.335	0.391	0.384	0.432
IA-LM	–	0.763	0.784	0.578	0.538	0.413	0.599	0.952	0.537	–	–	–	–	–	–	–	–
LC-2-ad	–	0.44	0.445	0.484	0.781	1.01	0.903	1.1	1.11	0.52	0.418	0.465	0.488	0.899	0.911	0.907	0.836
LCLC-97TM1	0.363	0.435	0.277	0.286	1.01	1.6	1.05	0.68	0.92	0.198	0.202	0.232	0.212	0.195	0.182	0.25	0.287
LCLC-103H	0.951	1.02	1.04	1.05	–	–	–	–	–	0.472	0.413	0.495	0.514	0.632	0.599	0.685	0.77
LK-2	–	0.259	0.213	0.253	–	0.884	0.932	1.05	0.696	0.774	0.548	0.599	0.605	0.756	1.04	0.817	0.718
LOU-NH91	–	0.738	0.734	0.783	0.751	0.807	0.788	0.601	0.738	–	0.526	0.587	0.514	–	0.783	0.763	0.864
NCI-H441	0.587	0.625	0.615	0.633	–	–	–	–	–	0.213	0.233	0.2	0.234	0.259	0.521	0.629	0.697
NCI-H522	–	–	–	–	–	–	–	–	–	1.14	1.18	1.08	1.21	0.742	0.711	0.769	0.832
NCI-H596	0.967	0.963	0.977	0.959	0.866	1.17	1.16	0.999	1.02	–	–	–	–	0.818	0.751	0.785	0.904
NCI-H1299	0.928	0.917	0.974	0.891	0.923	0.929	0.987	0.961	0.948	–	–	–	–	–	–	–	–
NCI-H1395	–	–	–	–	–	0.87	1.05	0.974	0.965	–	0.603	0.662	0.702	–	0.957	1.08	1.2
NCI-H1563	0.862	0.822	0.732	0.689	0.715	0.868	1.01	0.881	0.989	–	–	–	–	–	–	–	–
NCI-H1648	–	–	–	–	–	–	–	–	–	–	0.305	0.252	0.196	–	0.512	0.489	0.519
NCI-H1703	0.63	1.02	0.891	0.612	0.896	1.2	0.945	1.16	0.939	–	–	–	–	–	–	–	–
NCI-H1793	–	–	–	–	0.583	0.765	0.825	0.701	0.598	0.306	0.31	0.281	0.329	0.327	0.389	0.435	0.444
NCI-H2342	–	–	–	–	–	–	–	–	–	0.555	0.473	0.509	0.577	0.636	0.807	0.831	0.78
SW 900	–	–	–	–	–	–	–	–	–	0.432	0.481	0.453	0.487	0.659	0.905	0.954	0.609

Reference: the supplement of paper PMC10307832
